PubChem BioAssay (NCI)
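All cell lines were grown in 96-well plates and treated with compound for 48 hours. The concentration for 50% growth inhibition is given as GI50. TGI is the concentration that stops growth completely.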

How the values were obtained:
Assay in all cases: inhibition of tumour cell growth, NCI panel, 48 h
[1] = test system: 786-0 renal
[2] = test system: HCC-2998 colon
[3] = test system: HCT-15 colon
[4] = test system: K-562 leukemia
[5] = test system: NCI-H522 lung
[6] = test system: OVCAR-3 ovarian
[7] = test system: RXF 393 renal
[8] = test system: SF-268 CNS
[9] = test system: UACC-257 melanoma
[10] = test system: UACC-62 melanoma

| SMILES | GI50 [1] [µM] | TGI [1] [µM] | GI50 [2] [µM] | TGI [2] [µM] | GI50 [3] [µM] | TGI [3] [µM] | GI50 [4] [µM] | TGI [4] [µM] | GI50 [5] [µM] | TGI [5] [µM] | GI50 [6] [µM] | TGI [6] [µM] | GI50 [7] [µM] | TGI [7] [µM] | GI50 [8] [µM] | TGI [8] [µM] | GI50 [9] [µM] | TGI [9] [µM] | GI50 [10] [µM] | TGI [10] [µM] |
| --- | --- | --- | --- | --- | --- | --- | --- | --- | --- | --- | --- | --- | --- | --- | --- | --- | --- | --- | --- | --- |
| COc1ccc(N2C(=O)C(c3ccccc3)(c3ccccc3)C23C(=O)N(C)c2ccccc23)cc1 (stereo not drawn) | > 100 | > 100 | > 100 | > 100 | > 100 | > 100 | > 100 | > 100 | > 100 | > 100 | > 100 | > 100 | > 100 | > 100 | > 100 | > 100 | > 100 | > 100 | > 100 | > 100 |
| Cc1c2cccnc2c(C)c2c1c1cc(CO)ccc1n2C | 2.17 | 12.7 | 3.38 | 13.9 | 2 | 15.4 | 1.66 | 20.6 | 1.98 | 6.53 | 2.38 | – | 1.93 | 5.5 | 2.29 | 15.1 | 1.51 | 4.25 | 1.41 | 4.56 |
| Clc1coc2nc3ccccc3c(Nc3ccc4c(c3)OCO4)c12 | 2.73 | > 42.6 | 0.404 | 2.8 | 0.429 | 8.05 | 0.498 | – | 2.17 | > 23.3 | 0.596 | 2.46 | 1.51 | 8.47 | 5.6 | 54 | 9.15 | 26.1 | 0.408 | 5.32 |
| C=C(F)C(=O)N1CCN(c2nc(OC[C@@H]3CCCN3C)nc3c2CCN(c2cccc4cccc(Cl)c24)C3)C[C@@H]1CC#N | 0.769 | 2.09 | 1.2 | 2.66 | 0.56 | 2.06 | 0.421 | 1.84 | 0.441 | 1.73 | 1.15 | 3.28 | 1.29 | 2.66 | 1.37 | 3.37 | 1.57 | 3.1 | 1.66 | 3.25 |
| O=C1c2ccccc2C(=O)C1(Cl)C1(S(=O)(=O)O)c2ccccc2-c2ccccc21 | – | > 100 | – | > 100 | – | > 100 | – | > 100 | – | > 100 | – | > 100 | – | > 100 | – | > 100 | – | > 100 | – | > 100 |
| O=S(=O)(Nc1cc(F)cc(Cl)c1)c1ccc(-c2cnc(C3CC3)o2)cc1 | 4.88 | 20.9 | 3.71 | 18.7 | 0.529 | 17 | 0.422 | > 100 | 1.09 | 16.5 | 0.489 | 12.2 | 1.07 | 6.93 | 6.47 | 26.2 | 13.6 | 34.9 | 0.458 | 14.5 |
| CCOc1nc(-c2ccccc2)cc2c(O)c(-c3nnco3)[nH]c(=O)c12 | 6.17 | 31.9 | 5.57 | > 100 | 3.66 | > 100 | 4.83 | > 100 | 3.09 | > 100 | 4.42 | > 100 | 3.71 | 25.2 | 5.62 | > 100 | 3.2 | > 100 | 6.47 | > 100 |
| CC(=O)O.CC(=O)O.CC(=O)O.CC(=O)O.CC(=O)O.CC(=O)O.O.[Ti].[Ti] | > 100 | > 100 | > 100 | > 100 | > 100 | > 100 | > 100 | > 100 | > 100 | > 100 | > 100 | > 100 | > 100 | > 100 | > 100 | > 100 | > 100 | > 100 | > 100 | > 100 |
| Cn1cc(C2=C(c3ccc4ccccc4c3)C(=O)NC2=O)c2ccccc21 | > 25 | > 25 | > 25 | > 25 | 6.27 | > 25 | 2.09 | > 25 | 12.1 | > 25 | > 25 | > 25 | > 25 | > 25 | > 25 | > 25 | > 25 | > 25 | 21.3 | > 25 |
| C=C(C=O)C1CCC2(C(=O)O)CCC3(C)C(CCC4C5(C)CCC(O)C(C)(C)C5CCC43C)C12 (stereo not drawn) | 2.48 | 6.73 | 1.93 | 3.36 | 1.65 | 4.47 | 2.72 | > 100 | 1.96 | 5 | 1.44 | 2.87 | 1.34 | 2.99 | 2.15 | 10.5 | 2.05 | 5.48 | 1.64 | 3.57 |
| C=C(CCCCC)CN1CCCC1[C@@](C)(O)CC(=O)OCC (stereo partly drawn) | – | > 100 | – | > 100 | – | > 100 | – | > 100 | – | > 100 | – | > 100 | – | > 100 | – | > 100 | – | > 100 | – | > 100 |
